Experimental findings from patent US12029716B2, “Derivatives of korormicin useful as antibiotics” (Viotika Life Sciences Inc., priority 2015, dated 2024) are described below.

The test system of series [1] is Lactococcus lactis. Kind of series: Growth of free-living bacteria in liquid medium (OD600). The note with it: 1.0 to 50 μM.
Series [2] concerns primary Vascular Smooth Muscle cells. Kind of series: Cell toxicity / proliferation assay, primary vascular smooth muscle cells. In kind it is cell-based, human. How it is done: (§1) Cell Toxicity Assay was performed as follows. HeLa, HEK293 and primary VSM cells were seeded at 5×10^3 cells/well in 96-well plates and incubated with Korormicin, PEG-2 or homoserine lactones in DMEM containing 1% fetal bovine serum (FBS; Invitrogen Corp.). After 48 hours, the number of living cells was determined by a colorimetric enzyme assay, based on a cytoplasmic enzyme activity present in viable cells.
Cells were seeded at 5×10^3 cells/well in 96-well plates and incubated with C. trachomatis in DMEM containing 1% fetal bovine serum (FBS; Invitrogen Corp.). After 48 hours, the number of living cells was determined by a colorimetric enzyme assay (CellTiter 96 Cell Proliferation Assay; Promega Corporation, Madison, WI) based on a cytoplasmic enzyme activity present in viable cells. (Cory et al. Use of an aqueous soluble tetrazolium/formazan assay for cell growth assays in culture. Cancer Commun. 1991; 3:207-212). The absorbance of a formazan product in tissue culture media was measured at 500 nm using a microplate reader.

In series [3] the target is T1, Na^+-NQR (Vibrio cholerae serotype O1, UniProt Q9KPS2).
T1 construct: being placed in its native membrane; endogenous in cells; sub-bacterial membrane vesicles made by French press
Put plainly: Na+-NQR activity (dNADH oxidation) in sub-bacterial V. cholerae vesicles. The format is biochemical.

Series [4] concerns HEK293 cells infected with C. trachomatis. Kind of series: Intracellular pH in HEK293 cells infected with C. trachomatis. In kind it is cell-based, human. How it is done:
(§2) pHrodo™ Green AM and CoroNa Green Sodium Indicator (both Molecular Probes, Invitrogen) were used to measure intracellular pH (pHi) and intracellular sodium (Na^+i) concentration. HEK293 cells were seeded on 24 well plates and infected with C. trachomatis after overnight incubation in DMEM with 5% FBS. After 2 hours of incubation with C. trachomatis cells were treated with different concentrations of PEG-2S and subjected to pHi and Na^+i measurement at different time points according to manufacturer's protocols. In all assessments calibration curves were performed prior to the experiments. Fluorescent inverted microscope (TE-2000s Nikon) was used to obtain images and mean intensity was quantified using NIS Elements imaging software (Nikon, Mississauga, ON).

Series [5] can be described thus: physchem. The format is physicochemical. The note with it: organic solvent or mixture.
The subject of series [6] is Escherichia coli. Kind of series: Growth of free-living bacteria in liquid medium (OD600). The conditions noted are these: 1.0 to 50 μM.
Series [7] has as its system C. difficile ATCC 700057. Put plainly: Susceptibility test of Clostridium difficile growth. The note with it: 0.5 μM-50 μM. The format is cell-based. The method, then: Evaluation of a PEG-2S against Clostridium difficile (C. difficile ATCC 700057) was performed by Drop method on pre-reduced BAK plates according to Performance Standards for Antimicrobial Susceptibility Testing (Methods for Antimicrobial Susceptibility Testing of Anaerobic Bacteria; Approved Standard—Eighth Edition; Volume 32 Number 5, 2012).

Series [8] has as its system HEK293 cells infected with C. trachomatis. Kind of series: Intracellular sodium in HEK293 cells infected with C. trachomatis. In kind it is cell-based, human. The conditions noted are these: 1 and 2.5 μM (low μM). How it is done: as §2
Series [9] has as its system Chlamydia trachomatis. Kind of series: C. trachomatis infection of HeLa cells (chlamydial inclusions, immunocytochemistry). The format is cell-based. The note with it: for MCC2, Minimal Chlamydicidal Concentration: after 2 passages with treatment. The method, then: Chlamydia trachomatis (C. trachomatis) propagation and treatment were carried out as follows. C. trachomatis was propagated in HeLa cells. The titer of C. trachomatis was determined in cyclohexamide-treated HeLa cells, and concentrations used were expressed as inclusion forming units (IFU) per mL.
Assessment of the level of infection was determined as follows. HeLa cells were seeded on glass coverslips in 24-well plates at 3×10^4 cells/well and inoculated with C. trachomatis and then treated with antibiotic (or other compounds of interest). After 48 hours, the infected cells were fixed with 100% methanol and then incubated with anti-Chlamydia monoclonal antibody. Inclusion bodies were visualized by staining with FITC-conjugated secondary antibody and DAPI as counterstaining. The samples were examined by a fluorescence microscopy. Number of inclusions was calculated per 100 cells.
Assessment of antichlamydial activity of Korormicin (Scheme shown in FIG. 1) and PEG-2 (Scheme shown in FIG. 2) were performed as follows. Cells were infected with C. trachomatis and treated with different concentrations of antibiotic of choice. After 48 h of C. trachomatis was collected (P1) and used to infect fresh cells. Subsequent collections of C. trachomatis were used to obtain P2, P3, P4 and P5 stocks of C. trachomatis. Dilution of C. trachomatis used to infect cells after treatment with PEG-2 had to be minimized in order to visualize inclusions. Last passage collection of C. trachomatis (P5) of Korormicin treatment and all collected of passages of C. trachomatis treated with PEG-2 were used to establish infectivity of treated Chlamydia (Scheme shown in FIG. 3).
For MIC50 (Minimal Concentration of the antibiotic that inhibits formation of chlamydial inclusions on 50%) determination HeLa cells were grown in 24-well or 96 well plates overnight prior to chlamydial inoculation. Elementary bodies were applied to the cells in small volume of SPG (0.22 M sucrose, 8.6 mM Na2HPO4, 3.8 mM KH2PO4, 5 mM glutamic acid, 0.2 μm-filtered, pH 7.4) and after 2 hours of incubation unattached elementary bodies were removed and infected cells were treated with different concentration of antibiotics in Dulbecco's modified Eagle's medium (DMEM, Invitrogen) with 5% fetal bovine serum (FBS, Invitrogen) in the presence of cycloheximide (1.0 μg/ml). After 42 h inclusions were visualized by immunocytochemistry.
To determent chlamydicidal effect of Korormicin (Scheme 1) and PEG-2 (Scheme 2) Hela cells were infected with C. trachomatis and treated with different concentrations of antibiotics. After 48 h of C. trachomatis was collected (P1) and used to infect fresh cells. Subsequent collections of C. trachomatis were used to obtain P2, P3, P4 and P5 stocks of C. trachomatis. Dilution of C. trachomatis used to infect cells after treatment with PEG-2 had to be minimized in order to visualize inclusions. (See Scheme 2 below). Last passage collection of C. trachomatis (P5) of Korormicin treatment and all collected of passages of C. trachomatis treated with PEG-2 were used to establish infectivity of treated C. trachomatis. Minimal chlamydicidal concentration (MCC2) for Korormicin, PEG-2 and PEG-2S was calculated after 2 passages of infection with treatment and reflect inhibition of infection for more than 90%. In all experiments inclusions were visualized by immunocytochemistry.
Cells were seeded on glass coverslips in 24-well plates (2-4×10^4 cells/well) or on glass-bottom 96 well plates (10^4 cells/well), and after overnight inoculated with C. trachomatis. After 42 hours, the infected cells were fixed with 90% acetone (or 100% methanol in case of 96 well plates) and then incubated with anti-Chlamydia antibody (Thermo Fisher Scientific). Alexa Fluor 488-conjugated anti-rabbit IgG (Molecular Probes) was used as secondary antibody. DAPI staining solution (300 nM) was added to the coverslips to identify nuclei. […]

The test system of series [10] is Enterococcus faecalis. Kind of series: Growth of free-living bacteria in liquid medium (OD600). The conditions noted are these: 1.0 to 50 μM.
Series [11] concerns HeLa cells infected with C. trachomatis. Put plainly: Intracellular acidification of HeLa cells infected with C. trachomatis. The format is cell-based, human. The source says: The mechanism of action of PEG-2 was also investigated by monitoring intracellular acidification of infected cells treated with PEG-2. If PEG-2 is working through the inhibition of Na^+-NQR and a sodium motive force, then it would be expected to have an effect on intracellular Na^+ and H^+ concentrations within infected cells. HeLa cells were infected with C. trachomatis and intracellular acidification was monitored with fluorescent indicator dyes.

Series [12] concerns HEK293 cells. Kind of series: Cell toxicity assay, HEK293 cells. The note with it: HEK293, concentrations of up to 50 μM. The format is cell-based, human. The method, then:
as §1

Series [13] has as its system HeLa cell line. Put plainly: Cell toxicity assay, HeLa cells. In kind it is cell-based, human. The note with it: HeLa, concentrations of up to 50 μM. How it is done: as §1
[14] abbreviates: primary Vascular Smooth Muscle cells.
Where [15] appears, read: inhibition of infection for more than 90%.
Setting [16] is: read-out: MIC502, Minimal Inhibitory Concentration after the second treatment, second treatment.

The structures appear in SMILES notation. In brackets after ≈: the same amount, converted by molar mass. Entries after “also recorded” stand apart in the source; their conditions may differ. Read-outs that look alike come from different tables or passages of the source.

By solubility is commonly meant the dissolved amount per volume that the medium holds. Take `CCCCCCC/C=C/C=C\[C@H](O)CC(=O)NC1=C[C@](C)(CC)OC1=O` [PEG-2S]: the effect on growth entry in series [1] is listed as “did not affect the growth”; in [6] it was “did not affect the growth”; in [7], “does not affect the growth”; in series [10] it was “did not affect the growth”. In series [2] (setting [14]), the “toxicity to primary cells (in words)” value was “low cytotoxicity”. For the same compound, the IC50 in [3] is 1.76 nM; in [9] (Chlamydia trachomatis, HeLa, read-out: IC50(Chl), half-maximal inhibition of the proliferation of Chlamydia trachomatis, cell culture experimental model), 700 nM; in series [9] (setting [16]), 250 nM. In [4] (1.0 μM, within first 5 hours of infection), the “internal pH of infected cells” value was roughly 7.6. For the same compound, in series [4] (2.5 μM), the “effect on chlamydia-induced acidification” value is reported as “prevented the chlamydia-induced acidification completely”. Besides, the “effect on changes of cytoplasmic pH” value in series [4] (1 and 2.5 μM) is “prevents changes of cytoplasmic pH”. Moreover, the solubility in series [5] was less than 25 mM. In addition, the “effect on intracellular sodium accumulation / changes of [Na+]” value in [8] was “sensitive; also recorded: prevents changes”. The figures for the “MCC2, Minimal Chlamydicidal Concentration” value in series [9] and in series [9] (setting [15]) were 0.36 µg/mL and 1.0 µM, respectively. Further, the “MIC501, Minimal Inhibitory Concentration after the treatment” value in [9] (first treatment) amounted to 0.25 µg/mL (≈ 0.688 µM). Further, in series [9] (second treatment), the “MIC502, Minimal Inhibitory Concentration after the second treatment” value came out at 0.09 µg/mL (≈ 0.248 µM).
As for `CCCCCCC/C=C/C=C\[C@H](O)CC(=O)NC1=C[C@](C)(CC)OC1=O` [PEG-2], the “delay of the initial C. trachomatis-induced acidification” value in series [11] is “at least 2 hours”. Moreover, in [11], the “effect on the following acidification” value is on record as “diminishes the following acidification”. For the same compound, in [2] (setting [14]), the “toxicity to primary cells (in words)” value is recorded as “low cytotoxicity; also recorded: non-toxic”. The toxic effects entry is recorded as “no toxic effects” in [2] (primary Vascular Smooth Muscle cells, concentrations of up to 50 μM); “no toxic effects” in series [12]; “no toxic effects” in [13]. Further, the “toxic effects on primary cell cultures (VSMC)” value in [2] (up to 20 μM) is recorded as “no toxic effects”. The “efficacy against C. trachomatis infection (in words)” value in [9] is reported as “effective”. In [9] (1st treatment, 15 μM), the “decrease of infectivity (number of chlamydial inclusions in the next passage)” value is roughly 5 fold. Moreover, the “number of inclusions, of control” value in series [9] (5 consecutive treatments, 15 μM) is reported as 0.01%. Also, the “MCC2, Minimal Chlamydicidal Concentration” value came to 5.45 µg/mL in series [9] and 15 µM in [9] (setting [15]). Besides, the “number of detectable inclusions lower” value in series [9] (after 5 consecutive treatments, 15 μM) was 10,000 times. Also, the “MIC501, Minimal Inhibitory Concentration after the treatment” value in series [9] (first treatment) was 3.63 µg/mL (≈ 9.99 µM). Also, the “size of chlamydial inclusions” value in series [9] (fluorescence microscopy) was “noticeably smaller”. Also, the IC50 amounted to 10000 nM in series [9] (read-out: MIC501, Minimal Inhibitory Concentration after the treatment, first treatment, 50% inhibition of inclusion formation) and 4000 nM in series [9] (setting [16]). Moreover, the “MIC502, Minimal Inhibitory Concentration after the second treatment” value in [9] (second treatment) worked out at 1.45 µg/mL (≈ 3.99 µM).
